From ChEMBL document CHEMBL1156522, “Lateral compartmentalization of T cell receptor versus CD45 by galectin-N-glycan binding and microfilaments coordinate basal and activation signaling” (J Biol Chem, 2007)
Active and inactive are the calls of the source.

Assays:
[1] = target: T1, Tyrosine-protein phosphatase non-receptor type 1 (Homo sapiens, UniProt P18031); assay: Inhibition of protein tyrosine phosphatase N1 phosphorylation
T1 sequence (P18031 whole entry): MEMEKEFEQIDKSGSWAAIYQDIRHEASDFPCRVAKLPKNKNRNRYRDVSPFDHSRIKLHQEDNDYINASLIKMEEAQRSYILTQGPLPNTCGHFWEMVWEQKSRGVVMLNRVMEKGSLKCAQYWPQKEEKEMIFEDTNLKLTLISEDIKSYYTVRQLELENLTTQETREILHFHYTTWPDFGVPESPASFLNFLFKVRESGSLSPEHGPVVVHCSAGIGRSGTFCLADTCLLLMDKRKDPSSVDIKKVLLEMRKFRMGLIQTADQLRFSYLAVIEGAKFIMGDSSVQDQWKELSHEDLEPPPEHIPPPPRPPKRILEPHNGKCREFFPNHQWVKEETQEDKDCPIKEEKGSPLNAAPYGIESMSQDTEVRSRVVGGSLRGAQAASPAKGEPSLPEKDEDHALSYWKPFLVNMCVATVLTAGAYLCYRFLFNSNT

[2] = target: Tyrosine-protein phosphatase non-receptor type 13 (Homo sapiens, UniProt Q12923); assay: Inhibition of protein tyrosine phosphatase N13 phosphorylation
Sequence of Tyrosine-protein phosphatase non-receptor type 13 (Q12923 whole entry): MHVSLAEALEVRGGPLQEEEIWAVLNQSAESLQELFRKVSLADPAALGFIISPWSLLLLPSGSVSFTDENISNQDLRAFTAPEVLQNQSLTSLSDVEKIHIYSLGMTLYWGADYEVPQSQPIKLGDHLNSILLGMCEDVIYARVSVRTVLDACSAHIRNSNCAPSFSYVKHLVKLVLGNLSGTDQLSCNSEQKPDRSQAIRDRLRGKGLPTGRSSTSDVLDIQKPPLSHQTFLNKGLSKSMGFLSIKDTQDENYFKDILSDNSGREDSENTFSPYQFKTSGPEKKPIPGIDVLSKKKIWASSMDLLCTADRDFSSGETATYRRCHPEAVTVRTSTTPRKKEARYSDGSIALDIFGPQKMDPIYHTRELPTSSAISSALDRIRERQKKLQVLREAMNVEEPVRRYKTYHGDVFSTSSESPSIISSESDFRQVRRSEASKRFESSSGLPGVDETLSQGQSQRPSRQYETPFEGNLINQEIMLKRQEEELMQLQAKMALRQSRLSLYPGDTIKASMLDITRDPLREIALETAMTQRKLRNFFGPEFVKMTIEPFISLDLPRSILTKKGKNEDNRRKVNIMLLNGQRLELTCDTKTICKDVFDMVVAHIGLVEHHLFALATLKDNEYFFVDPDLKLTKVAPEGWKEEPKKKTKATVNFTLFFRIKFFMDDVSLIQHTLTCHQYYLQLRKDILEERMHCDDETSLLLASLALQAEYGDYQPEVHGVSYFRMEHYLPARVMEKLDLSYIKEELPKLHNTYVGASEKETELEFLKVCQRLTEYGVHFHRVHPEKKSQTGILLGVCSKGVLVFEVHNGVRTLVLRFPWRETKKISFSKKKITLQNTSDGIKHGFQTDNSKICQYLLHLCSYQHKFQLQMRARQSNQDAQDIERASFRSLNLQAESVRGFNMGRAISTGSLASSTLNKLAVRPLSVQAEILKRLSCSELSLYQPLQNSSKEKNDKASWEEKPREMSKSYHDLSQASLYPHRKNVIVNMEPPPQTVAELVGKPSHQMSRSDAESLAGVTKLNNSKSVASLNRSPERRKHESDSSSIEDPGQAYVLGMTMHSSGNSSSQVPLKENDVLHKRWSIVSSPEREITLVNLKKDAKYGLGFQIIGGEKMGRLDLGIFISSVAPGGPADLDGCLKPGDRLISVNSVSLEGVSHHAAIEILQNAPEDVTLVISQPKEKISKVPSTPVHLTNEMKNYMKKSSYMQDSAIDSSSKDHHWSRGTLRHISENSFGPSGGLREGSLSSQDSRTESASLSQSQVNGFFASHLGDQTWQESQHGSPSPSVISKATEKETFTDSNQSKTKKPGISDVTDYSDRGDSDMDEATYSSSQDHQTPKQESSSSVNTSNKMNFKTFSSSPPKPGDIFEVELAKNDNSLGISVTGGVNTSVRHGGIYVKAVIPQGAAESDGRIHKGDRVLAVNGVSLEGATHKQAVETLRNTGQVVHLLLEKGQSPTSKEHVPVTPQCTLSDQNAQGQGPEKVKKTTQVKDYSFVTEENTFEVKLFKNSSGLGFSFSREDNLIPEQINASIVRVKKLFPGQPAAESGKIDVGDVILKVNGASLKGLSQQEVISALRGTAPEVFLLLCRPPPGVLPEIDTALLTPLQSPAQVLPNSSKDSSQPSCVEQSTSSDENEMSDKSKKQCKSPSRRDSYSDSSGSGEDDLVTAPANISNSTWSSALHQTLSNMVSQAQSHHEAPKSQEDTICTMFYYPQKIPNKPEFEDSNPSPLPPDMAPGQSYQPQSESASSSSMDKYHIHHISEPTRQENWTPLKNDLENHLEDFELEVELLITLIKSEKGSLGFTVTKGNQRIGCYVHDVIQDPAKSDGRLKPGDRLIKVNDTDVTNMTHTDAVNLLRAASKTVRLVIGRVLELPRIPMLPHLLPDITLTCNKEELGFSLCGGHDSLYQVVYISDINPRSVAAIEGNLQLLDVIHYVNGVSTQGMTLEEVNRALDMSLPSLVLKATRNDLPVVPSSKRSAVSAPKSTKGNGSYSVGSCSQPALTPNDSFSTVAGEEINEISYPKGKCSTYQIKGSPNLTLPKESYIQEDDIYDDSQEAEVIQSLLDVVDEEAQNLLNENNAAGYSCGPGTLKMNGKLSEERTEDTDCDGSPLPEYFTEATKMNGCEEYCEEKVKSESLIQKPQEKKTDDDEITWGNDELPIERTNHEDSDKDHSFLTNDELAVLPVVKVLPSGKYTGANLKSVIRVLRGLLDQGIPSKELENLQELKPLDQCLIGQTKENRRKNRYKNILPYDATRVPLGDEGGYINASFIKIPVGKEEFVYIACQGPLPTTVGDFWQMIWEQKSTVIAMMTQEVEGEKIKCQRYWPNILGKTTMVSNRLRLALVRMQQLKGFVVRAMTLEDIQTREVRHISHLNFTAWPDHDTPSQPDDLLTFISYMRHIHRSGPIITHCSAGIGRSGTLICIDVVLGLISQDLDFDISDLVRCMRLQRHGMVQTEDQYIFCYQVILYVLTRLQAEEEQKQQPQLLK

[3] = target: T2, Tyrosine-protein kinase Lck (Homo sapiens, UniProt P06239); assay: Inhibition of Lck phosphorylation
Target sequence in this assay (P06239 whole entry): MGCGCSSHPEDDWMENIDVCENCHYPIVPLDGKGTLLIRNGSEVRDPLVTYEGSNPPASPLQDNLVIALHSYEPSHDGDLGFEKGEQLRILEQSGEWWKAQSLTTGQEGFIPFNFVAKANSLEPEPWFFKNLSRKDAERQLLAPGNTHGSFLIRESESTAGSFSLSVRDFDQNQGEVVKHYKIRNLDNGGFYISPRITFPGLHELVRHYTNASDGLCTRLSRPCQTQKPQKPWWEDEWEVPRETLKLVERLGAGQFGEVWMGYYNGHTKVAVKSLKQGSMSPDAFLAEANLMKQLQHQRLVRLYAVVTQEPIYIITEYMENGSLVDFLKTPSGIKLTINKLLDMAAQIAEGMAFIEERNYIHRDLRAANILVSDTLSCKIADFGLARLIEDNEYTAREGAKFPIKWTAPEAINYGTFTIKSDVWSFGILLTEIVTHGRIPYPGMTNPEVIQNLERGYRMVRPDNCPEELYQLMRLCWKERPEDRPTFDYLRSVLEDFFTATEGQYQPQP

[4] = target: Proto-oncogene tyrosine-protein kinase LCK (Mus musculus) (UniProt P06240); assay: Reversal of reduction of Lck Tyr394 phosphorylation in resting C57BL/6 mouse T cells at 20 uM by Western blot; format: cell-based; conditions: T-cell
Sequence of Proto-oncogene tyrosine-protein kinase LCK (Mus musculus) (P06240 2-509 limits assumed): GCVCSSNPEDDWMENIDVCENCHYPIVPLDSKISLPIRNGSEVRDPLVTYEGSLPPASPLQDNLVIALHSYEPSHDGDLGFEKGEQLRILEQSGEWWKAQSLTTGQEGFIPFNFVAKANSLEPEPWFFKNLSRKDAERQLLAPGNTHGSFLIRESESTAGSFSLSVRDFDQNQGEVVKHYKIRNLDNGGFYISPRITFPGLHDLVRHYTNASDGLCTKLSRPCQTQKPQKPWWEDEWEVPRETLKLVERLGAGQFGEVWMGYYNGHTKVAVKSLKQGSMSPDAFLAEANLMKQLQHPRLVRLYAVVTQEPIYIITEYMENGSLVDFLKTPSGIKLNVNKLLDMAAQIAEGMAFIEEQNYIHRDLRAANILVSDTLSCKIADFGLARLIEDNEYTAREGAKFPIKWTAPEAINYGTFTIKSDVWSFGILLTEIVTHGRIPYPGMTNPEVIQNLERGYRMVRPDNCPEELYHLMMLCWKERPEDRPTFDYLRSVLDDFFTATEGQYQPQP

[5] = target: Proto-oncogene tyrosine-protein kinase LCK (Mus musculus) (UniProt P06240); assay: Reduction of Lck Tyr394 phosphorylation in resting C57BL/6 mouse T cells at 20 uM by Western blot; format: cell-based; conditions: T-cell
[6] = tested on: Jurkat; assay: Reduction of CD45 co-localization with GM1-enriched microdomain in human Jurkat T cells after 3 days; format: functional, cell-based
[7] = tested on: Jurkat; assay: Induction of Nck protein binding to TCR complex in human Jurkat T cells by immunoprecipitation; format: cell-based
[8] = tested on: T-cell; assay: Effect on TCR distribution within GM1-enriched microdomain in C57BL/6 mouse Mgat5 expressing T cells pretreated at 20 uM; format: functional, cell-based
[9] = tested on: T-cell; assay: Effect on CD45 distribution within GM1-enriched microdomain in C57BL/6 mouse Mgat5 expressing T cells pretreated at 20 uM; format: functional, cell-based
[10] = tested on: T-cell; assay: Effect on CD4 distribution within GM1-enriched microdomain in C57BL/6 mouse Mgat5 expressing T cells pretreated at 20 uM; format: functional, cell-based
[11] = tested on: Jurkat; assay: Increase in TCR-CD3 galectin lattice partition to GM1-enriched microdomain in human Jurkat T cells by densitometry; format: functional, cell-based
[12] = tested on: Jurkat; assay: Reduction of CD4 surface expression in Lck deficient human Jurkat T cells by flow cytometry; format: functional, cell-based
[13] = target: T2, Tyrosine-protein kinase Lck; assay: Induction of Lck Tyr394 phosphorylation in CD4 deficient human Jurkat T D1.1 cells at 5 uM after 3 days by Western blot analysis; format: cell-based
Target sequence in this assay (P06239 2-509 limits assumed): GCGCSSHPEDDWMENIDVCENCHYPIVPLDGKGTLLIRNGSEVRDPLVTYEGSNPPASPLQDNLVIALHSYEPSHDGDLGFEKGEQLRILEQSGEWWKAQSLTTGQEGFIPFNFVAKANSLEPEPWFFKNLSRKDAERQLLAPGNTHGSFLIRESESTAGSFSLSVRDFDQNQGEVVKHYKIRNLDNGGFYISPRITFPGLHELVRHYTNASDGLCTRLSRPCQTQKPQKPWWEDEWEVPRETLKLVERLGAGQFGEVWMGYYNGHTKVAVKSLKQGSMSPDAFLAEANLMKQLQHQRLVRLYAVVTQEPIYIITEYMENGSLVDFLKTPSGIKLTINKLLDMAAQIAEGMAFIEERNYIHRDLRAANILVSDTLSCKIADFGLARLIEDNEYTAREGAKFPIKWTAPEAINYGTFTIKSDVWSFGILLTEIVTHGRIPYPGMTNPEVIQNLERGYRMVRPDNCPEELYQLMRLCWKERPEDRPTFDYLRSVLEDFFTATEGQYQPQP

[14] = target: T2, Tyrosine-protein kinase Lck; assay: Induction of Lck Tyr394 phosphorylation in TCRbeta deficient human Jurkat T J.RT3-T3.5 cells at 5 uM after 3 days by Western blot analysis; format: cell-based
Target sequence in this assay (P06239 2-509 limits assumed): as above

[15] = tested on: J-RT3-T3-5; assay: Enhancement of Lck localization within GM1-enriched microdomain in TCRbeta deficient human J.RT3-T3.5 cells by Western blot; format: functional
[16] = tested on: T-cell; assay: Increase CD4 co-localization to GM1-enriched microdomain in C57BL/6 mouse T cells pretreated for 20 mins; format: functional, cell-based
[17] = tested on: Jurkat; assay: Increase in ZAP70 expression in GM1-enriched microdomain of human Jurkat T cells by Western blot; format: functional, cell-based
[18] = organism: Homo sapiens; assay: Increase in CD4 galectin lattice partition to GM1-enriched microdomain in CD45 deficient human J45.01 cells by densitometry; format: functional
[19] = target: T3, Tyrosine-protein kinase ZAP-70 (Homo sapiens) (UniProt P43403); assay: Increase in Zap70 phosphorylation in anti-CD3-coated microbeads-stimulated CD45 deficient human J45.01 cells after 3 days
T3 sequence (whole entry): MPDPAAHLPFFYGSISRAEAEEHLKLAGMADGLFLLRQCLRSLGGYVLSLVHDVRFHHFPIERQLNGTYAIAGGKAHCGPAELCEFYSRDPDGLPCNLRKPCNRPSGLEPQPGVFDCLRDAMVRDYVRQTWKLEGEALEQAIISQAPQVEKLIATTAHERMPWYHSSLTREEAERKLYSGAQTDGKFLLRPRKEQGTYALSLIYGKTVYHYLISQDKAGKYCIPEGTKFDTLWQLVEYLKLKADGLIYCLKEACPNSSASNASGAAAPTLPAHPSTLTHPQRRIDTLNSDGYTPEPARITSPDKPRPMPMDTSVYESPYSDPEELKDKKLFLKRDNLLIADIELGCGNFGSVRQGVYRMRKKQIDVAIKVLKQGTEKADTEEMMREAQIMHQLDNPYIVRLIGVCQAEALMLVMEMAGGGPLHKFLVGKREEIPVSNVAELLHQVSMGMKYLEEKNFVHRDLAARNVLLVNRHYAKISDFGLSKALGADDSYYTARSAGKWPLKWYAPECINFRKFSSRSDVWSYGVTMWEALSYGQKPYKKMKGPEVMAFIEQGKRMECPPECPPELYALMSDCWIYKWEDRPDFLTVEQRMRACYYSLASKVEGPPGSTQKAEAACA

[20] = tested on: Jurkat; assay: Enhancement of Lck localization within GM1-enriched microdomain in human Jurkat T cells by Western blot; format: functional, cell-based
[21] = tested on: Jurkat; assay: Increase in CD45 galectin lattice partition to GM1-enriched microdomain in human Jurkat T cells by densitometry; format: functional, cell-based
[22] = tested on: T-cell; assay: Reduction of CD45 co-localization with GM1-enriched microdomain in resting C57BL/6 mouse T cells pretreated for 20 mins; format: functional, cell-based
[23] = tested on: Jurkat; assay: Increase in CD45 galectin lattice partition to GM1-enriched microdomain in CD4 deficient human Jurkat D1. 1 cells by densitometry; format: functional, cell-based
[24] = organism: Homo sapiens; assay: Increase in CD45 galectin lattice partition to GM1-enriched microdomain in CD45 deficient human J45.01 cells by densitometry; format: functional
[25] = tested on: Jurkat; assay: Enhancement of Lck localization within GM1-enriched microdomain in CD4 deficient human Jurkat D1. 1 cells by Western blot; format: functional, cell-based
[26] = target: T2, Tyrosine-protein kinase Lck; assay: Induction of Lck Tyr394 phosphorylation in CD45 deficient human Jurkat T DJ45.01 cells at 5 uM after 3 days by Western blot analysis; format: cell-based
Target sequence in this assay (P06239 2-509 limits assumed): as the sequence (P06239 2-509 limits assumed) above

[27] = tested on: T-cell; assay: Increase T cell receptor co-localization to GM1-enriched microdomain in C57BL/6 mouse T cells pretreated for 20 mins; format: functional, cell-based
[28] = tested on: J-RT3-T3-5; assay: Increase in CD45 galectin lattice partition to GM1-enriched microdomain TCRbeta deficient human J.RT3-T3.5 cells by densitometry; format: functional
[29] = organism: Homo sapiens; assay: Increase in ZAP70 expression in GM1-enriched microdomain of Lck defient human JCaM1.6 cells by Western blot; format: functional
[30] = tested on: Jurkat; assay: Increase in CD4 galectin lattice partition to GM1-enriched microdomain in human Jurkat T cells by densitometry; format: functional, cell-based
[31] = tested on: J-RT3-T3-5; assay: Increase in TCR-CD3 galectin lattice partition to GM1-enriched microdomain TCRbeta deficient human J.RT3-T3.5 cells by densitometry; format: functional
[32] = target: T4, Linker for activation of T-cells family member 1 (Homo sapiens) (UniProt O43561); assay: Increase in LAT phosphorylation in anti-CD3-coated microbeads-stimulated CD45 deficient human J45.01 cells after 3 days
T4 sequence (whole entry): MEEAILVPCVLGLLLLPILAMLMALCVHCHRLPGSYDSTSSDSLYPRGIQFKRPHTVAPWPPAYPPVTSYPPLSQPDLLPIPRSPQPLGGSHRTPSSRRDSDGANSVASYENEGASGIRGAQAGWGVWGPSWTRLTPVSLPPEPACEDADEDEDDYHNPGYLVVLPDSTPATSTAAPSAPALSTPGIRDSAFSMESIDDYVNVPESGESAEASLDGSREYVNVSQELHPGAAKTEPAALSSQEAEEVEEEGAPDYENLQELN

[33] = target: T3, Tyrosine-protein kinase ZAP-70 (Homo sapiens); assay: Induction of ZAP70 phosphorylation in human Jurkat T cells at 5 uM after 3 days by Western blot analysis; format: cell-based
[34] = tested on: J-RT3-T3-5; assay: Increase in CD4 galectin lattice partition to GM1-enriched microdomain TCRbeta deficient human J.RT3-T3.5 cells by densitometry; format: functional
[35] = organism: Homo sapiens; assay: Enhancement of Lck localization within GM1-enriched microdomain in CD45 deficient human J45.01 cells by Western blot; format: functional
[36] = tested on: Jurkat; assay: Increase in TCR-CD3 galectin lattice partition to GM1-enriched microdomain in CD4 deficient human Jurkat D1. 1 cells by densitometry; format: functional, cell-based
[37] = target: T4, Linker for activation of T-cells family member 1 (Homo sapiens); assay: Induction of LAT phosphorylation in human Jurkat T cells at 5 uM after 3 days by Western blot analysis; format: cell-based
[38] = target: T2, Tyrosine-protein kinase Lck; assay: Induction of Lck Tyr394 phosphorylation in human Jurkat T cells at 5 uM after 3 days by Western blot analysis; format: cell-based
Target sequence in this assay (P06239 2-509 limits assumed): as the sequence (P06239 2-509 limits assumed) above

[39] = organism: Homo sapiens; assay: Increase in TCR-CD3 galectin lattice partition to GM1-enriched microdomain in CD45 deficient human J45.01 cells by densitometry; format: functional

CC(C)(C)C(=O)Nc1ccc2c(c1)C(=O)C(=O)c1ccccc1-2
3.8 µM: IC50 [3]
> 30 µM: IC50 [1] | IC50 [2]

C/C1=C/C(=O)O[C@@H]2C[C@@H](CC[C@H](C)/C=C\C=C\CC1)O[C@@](O)([C@@H]1CSC(=O)N1)C2
active: Activity [4] | Activity [5]

LACTOSE, ANHYDROUS
active: Activity [6] | Activity [7]

CC(C)(C)n1nc(-c2ccc(Cl)cc2)c2c(N)ncnc21
inactive: Activity [8] | Activity [9] | Activity [10]

O[C@H]1[C@H]2[C@H](O)CCCN2C[C@H]1O
active: Activity [11] | Activity [12] | Activity [16] | Activity [17] | Activity [20] | Activity [21] | Activity [22] | Activity [23] | Activity [24] | Activity [25] | Activity [27] | Activity [28] | Activity [30] | Activity [31] | Activity [33] | Activity [34] | Activity [35] | Activity [36] | Activity [37] | Activity [7] | Activity [38] | Activity [39]
inactive: Activity [13] | Activity [14] | Activity [15] | Activity [18] | Activity [19] | Activity [26] | Activity [29] | Activity [32]
